Data: patent publication US8071099B2, “Anti-FLT3 antibodies” (ImClone, LLC, priority 2008, dated 2011)

Columns and labels:
SEM-K2 cells = experiment: Combination therapy with EB10 and MTX in SEM-K2 Leukemia Model; type: in vivo, NOD/SCID mice; settings: EB10 10 mg/kg i.p. 2×/week; MTX 100 mg/kg Q7D; combination of both
Description: One day prior to the start of treatment, i.v. inject 65, 7 weeks old, male NOD/SCID mice with 5×10^5 SEM-K2 cells suspended in PBS in a total volume of 200 μl. Drop from the study mice receiving less than 90% of cells intravenously.
Prepare MTX (Sigma Chemical, Cat # M9929) in USP Saline at a concentration of 10 mg/ml and dose Q7D for three cycles. […] Dose all mice at 10 ml/kg i.p. In the combination group, dose MTX at least one hour before EB 10 treatment starting on day 1. Record mouse survival daily. Follow the mice for survival, and sacrifice any mouse displaying signs of morbidity/mortality; mark as dead on the day of sacrifice. End the study on day 168 and sacrifice any mice surviving to that point. Compare survival in the treatment groups by Log Rank Test between treatment groups.

Human Leukemia Cells = experiment: Bone Marrow Engraftment of Human Leukemia Cells; type: in vivo, mice; settings: 500 μg/dose, versus control-IgG treated group
Description: Bone Marrow Engraftment of Human Leukemia Cells: Harvest bone marrow from the femurs of EB10-treated mice (500 μg/dose) and the control-IgG treated group at day 20. Analyze cells for human CD45 by flow cytometry at 6 and 14 weeks post leukemia cell injection for the degree of tumor cell infiltration of bone marrow. Compare the degree of tumor cell infiltration of bone marrow using immunohistochemical staining with a fluorescence-labeled anti-human CD45 antibody.

BaF3-ITD cells = experiment: Cell proliferation assay ([3H]-thymidine), FL-independent, BaF3-ITD; type: cell-based
Description: Harvest EOL-1 cells and wash three times using serum-free RPMI 1640 medium. Culture cells in serum-free RPMI 1640 medium for 12 hours. For BaF3-ITD cells, perform the proliferation assay in RPMI 1640 medium supplemented with 10% FCS in the absence of exogenous FL. Reconstitute cells in serum-free AIM-V medium, plate in triplicates in a flat-bottomed 96-well plate (1×104/100 μl/well) and incubate with varying concentrations of antibodies (from 0 to 100 nM) and 30 ng/ml of FL at 37° C. for 68 hours. As a background control, incubate cells with medium alone in the absence of exogenous FL. Pulse cells with 0.25 μCi/well of [^3H]-thymidine for 4 hours. Harvest cells and measure cpm in a PerkinElmer Wallace-1205 Betaplate Liquid Scintillation Counter (Wellesley, Mass.). Calculate the percent inhibition of FL-induced proliferation for EOL-1 cells; deduce the cpm of background proliferation (i.e., cell samples not stimulated with FL) from the cpm of all experimental samples. Calculate percent inhibition using the following formula: [(cpm of untreated sample—cpm of antibody-treated sample)/cpm of untreated sample]×100%.

EOL-1 leukemia cells = experiment: EOL-1 Xenograft Human AML Leukemia Model; type: in vivo, NOD-SCID mice; settings: 10 μg
[1] = system: FLT3-negative JM1 or BaF3-control cell lines; experiment: Flow cytometric analysis, FLT3-negative cell lines; type: binding

Row | Molecule | mouse survival (SEM-K2 cells) | number of tumor cells in bone marrow (human CD45) (Human Leukemia Cells) | % Inhibition of FL-independent proliferation (Mean ± Standard deviation) (BaF3-ITD cells; 6 nM) [%] | % Inhibition of FL-independent proliferation (Mean ± Standard deviation) (BaF3-ITD cells; 13 nM) [%] | % Inhibition of FL-independent proliferation (Mean ± Standard deviation) (BaF3-ITD cells; 25 nM) [%] | % Inhibition of FL-independent proliferation (Mean ± Standard deviation) (BaF3-ITD cells; 50 nM) [%] | % Inhibition of FL-independent proliferation (Mean ± Standard deviation) (BaF3-ITD cells; 100 nM) [%] | effect on survival (EOL-1 leukemia cells) | binding by flow cytometric analysis ([1]; BaF3-control cell line) | binding by flow cytometric analysis ([1]; FLT3-negative JM1 cell line)
1 | CN(Cc1cnc2nc(N)nc(N)c2n1)c1ccc(C(=O)N[C@@H](CCC(=O)O)C(=O)O)cc1 [MTX, methotrexate, reference compound] | also prolonged survival | – | – | – | – | – | – | – | – | –
2 | EB10: recombinant human monoclonal antibody, full length IgG1κ targeting human FLT3; heavy chain SEQ ID NO:25, light chain SEQ ID NO:28 | significantly prolonged mouse survival | decreased significantly | 9.6 ± 3.1 | 13.0 ± 4.0 | 23.3 ± 0.6 | 28.6 ± 3.1 | 29.2 ± 3.0 | No effect | No binding | No binding
